Test results: PMC11091888, “Evaluation of Fusobacterium nucleatum Enoyl-ACP Reductase (FabK) as a Narrow-Spectrum Drug Target” (ACS Infectious Diseases, 2024)
In brackets after ≈: the same amount, converted by molar mass. Several values for one entry are separate records, joined by “and”; a condition that tells them apart may be missing. Equal entries are not always repeated. Where two headings read alike, the source gives them in different places.

Legend:
S. salivarius HM-121 = experiment: Growth in FAS-II inhibitor with or without exogenous fatty acids; type: cell-based, Streptococcus salivarius; conditions: fatty acid mixture of Table S2
Description: (§1) To plates containing twofold serial dilutions of compounds, exponential phase cultures were added to a final OD600nm of 0.1. Plates containing F. nucleatum in Columbia broth were incubated at 37 °C inside of a Tecan Infinite 200 Pro, which was inside an anaerobic chamber; growth kinetics for Streptococcus spp. in brain heart infusion broth were done aerobically in the same Tecan instrument.

[1] = Cytotoxicity against Vero cells (resazurin viability); type: cell-based; conditions: monkey, Vero epithelial cells, maximum tested concentration 100 μg/mL
Description: (§2) This was done as described[36] using colorectal carcinoma HCT116 and Vero epithelial cells cultured at 37 °C in 5% CO2 in Dulbecco’s modified Eagle’s medium (DMEM) with 4.5 g/L glucose and L-glutamine. The medium was supplemented with 10% v/v FetalGro (Rocky Mountain Biologicals). Approximately 25,000/well were aliquoted into black 96-well plates (Greiner Bio-One) and incubated overnight, before being resuspended in DMEM supplemented with 20% Gibco KnockOut Serum Replacement (Thermo Fisher Scientific). Compounds (100–1.6 μg/mL) were then added to the cells and incubated for 24 h at 37 °C and 5% CO2. Cell viability was analyzed using resazurin as described.[36]

[2] = Cytotoxicity against HCT116 cells (resazurin viability); type: cell-based; conditions: human, HCT116 colorectal carcinoma cells, maximum tested concentration 100 μg/mL
Description: as §2, with “Compounds (100–1.6 μg/mL) were then added to the cells and incubated for 24 h at 37 °C and 5% CO2.” left out

CdFabK = tested on: CdFabK; set-up: method as in PMID 37224699; conditions: previously reported, cited from earlier work
S. pyogenes 19615 = experiment: Growth in FAS-II inhibitor with or without exogenous fatty acids; type: cell-based, Streptococcus pyogenes; conditions: fatty acid mixture of Table S2
Description: as §1

E. faecalis FA2–2ΔfabK = experiment: MIC against E. faecalis FA2-2 fabI+ (ΔfabK, possesses only FabI); type: cell-based, Enterococcus faecalis
Description: (§3) Compounds were twofold serially diluted (100–0.2 μg/mL) across a 96-well plate in 100 μL of media used for the specific organism (Table S4). For anaerobes, plates were incubated anaerobically at 37 °C for 1 h and then inoculated with approximately 10^5 to 10^6 CFU/well. Plates were incubated at 37 °C for up to 48 h, and MICs were read by visual inspection.

[3] = tested on: F. nucleatum 23726 mutants JR1-JR4; experiment: MIC against 681-resistant mutants of F. nucleatum 23726; type: cell-based, Fusobacterium nucleatum; conditions: for MIC: Fusobacterium nucleatum
Description: as §3
Overnight cultures of F. nucleatum 23726 were diluted 1:50 in fresh Columbia broth, which was used to inoculate 96-well plates containing twofold serial dilutions of compound 681. After 48 h of incubation, cultures were recovered from wells one dilution below the MIC, and this was used to establish the inocula for the subsequent passage into 96-well plates containing 681. This process was repeated until cultures grew at 8× the original MIC for two consecutive passages. Cultures were then plated onto Columbia blood agar plates and incubated for 72 h at 37 °C. Single colonies were collected into Columbia broth with 0.39 μg/mL of 681 and cultured for up to 48 h and then plated onto selective Columbia blood agar plates to further purify putative 681-resistant colonies.

F. periodonticum 2_1_31 = experiment: MIC, digestive tract panel; type: cell-based; conditions: ENR FabK
Description: as §3

Bifidobacterium breve = experiment: MIC, digestive tract panel; type: cell-based; conditions: Type I FAS
Description: as §3

[4] = tested on: Streptococcus sp. CMW7705B; experiment: MIC, digestive tract panel; type: cell-based; conditions: ENR FabK
Description: as §3

Streptococcus salivarius = experiment: MIC, digestive tract panel; type: cell-based; conditions: ENR FabK
Description: as §3

P. gingivalis F0185 = experiment: MIC, digestive tract panel; type: cell-based; conditions: Porphyromonas gingivalis, ENR FabK
Description: as §3

Bacteroides ovatus = experiment: MIC, digestive tract panel; type: cell-based; conditions: ENR FabI/FabK
Description: as §3

CS(=O)(=O)c1ccc2nc(NC(=O)NCc3nc(-c4ccc(Br)cc4)c[nH]3)sc2c1 [Compound 681, 1-((4-(4-bromophenyl)-1H-imidazole-2-yl)methyl)-3-(6-(methylsulfonyl)benzo[d]thiazol-2-yl)urea]
Increase in biomass (OD600nm) in the presence of inhibitor and exogenous fatty acids (S. salivarius HM-121): twofold
IC50 at 24 h [1]: > 100 µg/mL
IC50 at 24 h [2]: > 100 µg/mL
IC50 against CdFabK, equivalent concentration (CdFabK): 0.2 µg/mL
IC50 (CdFabK; read-out: IC50 against CdFabK): 450 nM
Increase in biomass (OD600nm) in the presence of inhibitor and exogenous fatty acids (S. pyogenes 19615): 4–5 fold
MIC Ef fabI+ (E. faecalis FA2–2ΔfabK; E. faecalis FA2-2 ΔfabK, possesses only FabI): 100 µg/mL and >100 µg/mL
MIC (E. faecalis FA2–2ΔfabK; Enterococcus faecalis, read-out: MIC Ef fabI+, E. faecalis FA2-2 ΔfabK, possesses only FabI): > 100 µg/mL
MIC against mutant JR2 ([3]; 12 bp deletion upstream of fabX): 3.1 µg/mL (≈ 6.12 µM)
MIC ([3]; read-out: MIC against mutant JR2): 6.3 µg/mL (≈ 12.4 µM)
MIC ([3]; read-out: MICs against mutants JR1-JR4): 3.1 to 12.5 µg/mL (≈ 6.12 to 24.7 µM)
MIC against mutant JR3 ([3]; fabK TSS + 1: C > T): 3.1 µg/mL
MIC (F. periodonticum 2_1_31): 0.8 µg/mL (≈ 1.58 µM)
MIC (Bifidobacterium breve): >100 µg/mL
MIC (Bifidobacterium breve; read-out: MIC): > 100 µg/mL
MIC [4]: < 1.6 µg/mL
MIC (Streptococcus salivarius): < 1.6 µg/mL
MIC (P. gingivalis F0185): 6.3 µg/mL (≈ 12.4 µM)
MIC (Bacteroides ovatus): >100 µg/mL
MIC (Bacteroides ovatus; read-out: MIC): > 100 µg/mL
